Source: US20120010161A1, “NOVEL AZAPEPTIDE OR AZAPEPTIDOMIMETIC COMPOUNDS INHIBITING BCRP AND/OR P-GP” (CENTRE NATIONAL DE LA RECHERCHE SCIENTIFIQUE, priority 2009, published 2012)
“Also recorded” adds a separate entry of the source.

Experiments:
ABCG2 = test: Estimation of the level of expression of ABCG2 (western blot); format: cell-based, human; conditions: 5 μM, 3 h to 72 h
Description: Estimation of the level of expression of ABCG2. The cells HEK293 pcDNA3.1 or HEK293 pcDNA3.1 BCRP are seeded in sixteen 6 cm^2 Petri dishes and incubated for 24 hours at 37° C. under 5% CO2. After this incubation, the various wells are supplemented with 30 μL either of DMSO (controls) or of compound IA.2 dissolved in DMSO, corresponding to a final concentration after dilution of 5 μM. After 3 h, 24 h, 48 h or 72 h of incubation, the cells are trypsinized and centrifuged at 200 g for 5 minutes. The protein fraction is extracted with a hypotonic lysis buffer (10 mM Tris-Cl pH 7.5, 10 mM NaCl, 1 mM MgCl2, 1 mM DTT, protease inhibitors) and assayed with bicinchoninic acid (Sigma-Aldrich). Ten micrograms of this fraction are deposited on polyacrylamide gel of Laemmli type (U. K. Laemmli, Nature 1970, 227, 680) to separate the proteins, which are then transferred onto polyvinyl fluoride (pvdf) membrane for 60 minutes at 100 mA in a 10 mM CAPS pH 11.1 […] buffer, 10% methanol (Sigma-Aldrich). The pvdf membrane is then saturated for 30 minutes in a solution of powdered skimmed milk at 1% (w/v) in TBST buffer (Tris buffer saline 1×, Tween 20 0.1%). […] Revelation is performed using the “immobilon western” kit (Millipore) with the QuantityOne software (Biorad). […]

NIH-3T3 cells = test: Cytotoxicity on cell growth, MTT test; format: cell-based; conditions: 72 hours
Description: The cells are seeded (10 000 cells/well) in 96-well plates and incubated for 24 hours at 37° C. under 5% CO2. Varied concentrations of mitoxantrone (from 0 to 20 μM in a constant final volume of 100 μL) are then added with an equal volume of each of the test compounds. The cells are then left to divide for 72 hours. The cytotoxicity is evaluated colorimetrically with 3-(4,5-dimethylthiazol-2-yl)-2,5-diphenyltetrazolium bromide (MTT).
Increasing concentrations of compound (IB.1) are applied to NIH-3T3 cells expressing or not expressing ABCB1, and whose residual vitality is evaluated after 72 hours of treatment by an MTT test. The results are illustrated in FIG. 9, in which the cells expressing ABCB1 are represented by empty circles, and those not expressing it by solid circles. […] It increases by 30-40% thereafter, but however remains limited to this value, up to a concentration equivalent to 40 times its IC50, whether or not ABCB1 is expressed.

Row | SMILES | level of expression of ABCG2 (ABCG2; HEK293 BCRP cells, vs DMSO) | level of expression of tubulin (control protein) (ABCG2; HEK293 cells) | increase of cytotoxicity on NIH-3T3 cells (NIH-3T3 cells; above 5 times and up to 40 times its IC50, expressing or not ABCB1) | harmlessness on NIH-3T3 cells (NIH-3T3 cells; cells expressing or not ABCB1) | cytotoxicity on NIH-3T3 cells (NIH-3T3 cells; up to 5 times its IC50)
1 | CC(C)(C)OC(=O)NN(C(=O)N[C@@H](CCCCNC(=O)OCc1ccccc1)C(=O)OC(C)(C)C)c1cccc(C(=O)OCc2ccccc2)c1 [IA.2, tert-Butyl ester of (2S)-6-(benzyloxycarbonylamino)-2-[1-(3′-(benzyloxycarbonyl)phenyl)-2-(tert-butoxycarbonyl)hydrazino-carbonylamino]hexanoic acid] | reduces the level of expression; also recorded: decrease in the level of expression | without affecting | – | – | –
2 | CC(C)(C)OC(=O)N[C@H](CNN(CCCCCCNC(=O)OCc1ccccc1)C(=O)OC(C)(C)C)CC(=O)OCc1ccccc1 [IB.1, Benzyl ester of (3S)-4-[2-(6-benzyloxycarbonylaminohexyl)-2-tert-butoxycarbonylhydrazino]-3-tert-butoxycarbonylaminobutyric acid] | – | – | 30-40% | harmlessness | negligible
